{"source": "patent EP2849731B1", "about": "“FORMULATION FOR LOW BIOAVAILABILITY SUBSTANCES CONTAINING A N-ACETYLCYSTEINE-CHITOSAN SALT” (Labomar S.r.l., priority 2012, dated 2013)", "key": {"[1]": {"assay": "Curcumin detection by HPLC-UV in the 0.25% w/w solution of Composition A in buffer", "format": "physicochemical", "details": "due to incomplete solubility in the buffers"}, "[2]": {"assay": "Intestinal passage test: curcumin passage through the Caco-2 monolayer, HPLC-UV", "details": "human", "method": "The passage through a monolayer of Caco-2 cells of Composition A at non-cytotoxic concentration is monitored at defined times (0 min- 15 min -30 min and 60 min).\nThe Caco-2 cells grown as a monolayer on a permeable artificial support reproduce the intestinal epithelial layer (monolayer of cells that are polarized and coupled by tight junctions). The flow through the monolayer allows to establish the permeability of a substance.\nAfter 21 days of growth on insert, the differentiated cells show an apical side, corresponding to the intestinal lumen in vivo, and one that corresponds to the basolateral compartment of the blood and lymphatic circulation of the organism.\nThe culture medium is aspirated from all cell monolayers before the experiments of permeability. All cell monolayers are washed once with HBSS solution (Hank's Balanced Salt Solution) and left to equilibrate at 37°C for 20 min. […] In parallel, the same amount of substance is divided into equal aliquots and represents the apical sample at time = 0 minutes (0'AP). At the receiving side of the monolayer 1.2 mL of 1X HBSS-Hepes 1% (pH 7.4) are added. […]\nUsing the mathematical formulas described by Arturrson the relationships are calculated between concentrations of substances in the basolateral (receiver) and in the apical (donor) compartments at each sampling time."}}}
{"smiles": "COc1cc(/C=C/C(=O)CC(=O)/C=C/c2ccc(O)c(OC)c2)ccc1O", "note": "[Curcumin, curcumin]", "values": [{"measurement": "loss in title (theoretical curcumin content not detected in the solution)", "setting": "[1]", "result": 23, "unit": "%"}, {"measurement": "Papp A→B at 60 min, 1.404 mM", "setting": "[2]", "result": 0.804, "unit": "×10⁻⁶ cm/s"}]}
